Measured values published in patent US20250108038A1 (priority 2023, published 2025).
Where two headings read alike, the source gives them in different places.

How the values were obtained:
[1] = type: physicochemical
Description: All conditions and stock preparation procedures were identical to the conditions applied in the transporter assays (Table 74, Table 75 and Table 76). […] A follow-up assay was carried out at 7 concentrations in order to correct the nominal concentrations for the IC50 calculations (Table 78). Where NSB was observed (>20% loss) the assay concentrations were corrected according to the result of the respective NSB assay.
All conditions and stock preparation procedures were identical to the conditions applied in the transporter assays.
Samples (1.5×C0 or Total) were immediately taken after mixing to determine the total initial concentrations. The assay mixes were pre-incubated for 15 minutes at 37° C. and at 32° C. in case of BCRP and MDR1. After the pre-incubation step the assay mixes were 1.5-times diluted with (pre-warmed) transport buffer reaching the final nominal concentrations of the compounds in the VT assay and then were further incubated at 37° C. or 32° C. for BCRP and MDR1 and sampled in the end of incubation (timc).
The aqueous buffer was mixed, and samples (C0 or Total) were immediately taken for determining the total initial concentrations. The helper plate was pre-warmed for 15 minutes at 37° C. The pre-warmed aliquots of the aqueous buffers with the test articles (50 μL) were transferred from the helper plate into the wells of another 96-well plate (assay plate) and incubated for 30 minutes (pre-incubation) then removed from the wells. Thereafter the same wells of the assay plate were dosed again with other aliquots of the aqueous buffers with the test articles and were further incubated in the assay plate at 37° C. and finally sampled (tinc).

[2] = system: human 3D intestinal model (EpiIntestinal); experiment: Intestinal permeability in the EpiIntestinal model; type: in vitro ADME; conditions: apical dose 100 μL of 10 mM stock solution, 120 min, 37° C.
Description: FIG. 2A. Intestinal permeability of Compound I-19. […] Samples were taken from the basolateral compartment at 0, 15, 30, 60, and 120 min. and were analyzed by LCMSMS for presence of parent compound. Values represent mean+SEM of n=3 separate experiments.
FIG. 2B. Intestinal permeability of Compound I-4 was determined in the human 3D intestinal model (Epilntestinal) from MatTek Corp. Tissues were dosed apically with 100 μL of 10 mM stock solution (4.25 μg) at 0 min. and the tissues were incubated with the test articles at 37° C. for a total of 120 min. Samples were taken from the basolateral compartment at 0, 15, 30, 60, and 120 min. and were analyzed by LCMSMS for presence of parent compound. Values represent mean+SEM of n=3 separate experiments.
Human 3D EpiIntestinal tissue model (MatTek, SMI-100, Lot #33921 Kit B) was used to model the intestine and was used for permeability studies. This model offers […] advantages over other permeability testing models such as Caco-2 cells. […]
The test articles (100 wL of 100 μM solution, or 4.25 ug) was applied to the apical surface of the EpiIntestinal model. […] Metabolic stability was determined by loss of parent compound using LCMSMS.
All data was compiled and organized in Excel. Mean, standard deviation, and standard deviation of the mean were calculated using Excel. […] The permeability coefficient (Papp) was calculated using the following equation: […]

[3] = BCRP, BSEP and MDR1 VT inhibition assay setup
[4] = HBSS (pH 7.4) and KH (pH 8.0) uptake assay buffers
[5] = HBSS (pH 7.4) uptake buffer, 37° C., nominal 3.00 μM
[6] = HBSS (pH 7.4) uptake buffer, 37° C., nominal 30.00 μM
[7] = KH (pH 8.0) uptake buffer, 37° C., nominal 3.00 μM
[8] = KH (pH 8.0) uptake buffer, 37° C., nominal 30.00 μM
[9] = Transport buffer with sucrose (pH 7.4), BCRP and MDR1 VT, 32° C., nominal C0 5.00 μM
[10] = Transport buffer with sucrose (pH 7.4), BCRP and MDR1 VT, 32° C., nominal C0 50.00 μM
[11] = HBSS (pH 7.4) uptake buffer, 37° C., nominal 10.00 μM
[12] = HBSS (pH 7.4) uptake buffer, 37° C., nominal 100.00 μM
[13] = HBSS (pH 7.4), 37° C., nominal 0.412 μM, IC50 determination
[14] = HBSS (pH 7.4), 37° C., nominal 1.235 μM, IC50 determination
[15] = HBSS (pH 7.4), 37° C., nominal 3.704 μM, IC50 determination
[16] = HBSS (pH 7.4), 37° C., nominal 11.11 μM, IC50 determination
[17] = HBSS (pH 7.4), 37° C., nominal 33.33 μM, IC50 determination
[18] = HBSS (pH 7.4), 37° C., nominal 100.00 μM, IC50 determination
[19] = KH (pH 8.0) uptake buffer, 37° C., nominal 10.000 μM
[20] = KH (pH 8.0) uptake buffer, 37° C., nominal 100.000 μM
[21] = KH (pH 8.0), 37° C., nominal 0.412 μM, IC50 determination
[22] = KH (pH 8.0), 37° C., nominal 1.235 μM, IC50 determination
[23] = KH (pH 8.0), 37° C., nominal 3.704 μM, IC50 determination
[24] = KH (pH 8.0), 37° C., nominal 11.11 μM, IC50 determination
[25] = KH (pH 8.0), 37° C., nominal 33.33 μM, IC50 determination
[26] = KH (pH 8.0), 37° C., nominal 100.00 μM, IC50 determination
[27] = Transport buffer (pH 7.4) for BSEP VT inhibition assay, 37° C., nominal C0 10.00 μM
[28] = Transport buffer (pH 7.4) for BSEP VT inhibition assay, 37° C., nominal C0 100.00 μM
[29] = Transport buffer with sucrose (pH 7.4) for BCRP and MDR1 VT inhibition assay, 32° C., nominal C0 10.00 μM
[30] = Transport buffer with sucrose (pH 7.4) for BCRP and MDR1 VT inhibition assay, 32° C., nominal C0 100.00 μM

## OC1(c2ccc(Cl)cc2)c2ccccc2C2=NCCN21 (stereo not drawn) [Compound A, 5-(4-chlorophenyl)-2,3-dihydroimidazo[1,2-b]isoindol-5-ol, reference compound]
[1]; [3]
  Non-specific binding (NSB): did not show any NSB
[1]; [4]
  Non-specific binding (NSB): did not show any NSB
[1]; [5]
  Concentration after incubation: 1.85 ± 0.13 µM
  Loss of Compound A during the NSB assay: 14%
  Measured dosing concentrations: 2.16 ± 0.05 µM
[1]; [6]
  Concentration after incubation: 17.66 ± 0.35 µM
  Loss of Compound A during the NSB assay: 15%
  Measured dosing concentrations: 20.71 ± 0.67 µM
[1]; [7]
  Concentration after incubation: 1.86 ± 0.06 µM
  Loss of Compound A during the NSB assay: 20%
  Measured dosing concentrations: 2.31 ± 0.11 µM
[1]; [8]
  Concentration after incubation: 18.15 ± 0.42 µM
  Loss of Compound A during the NSB assay: 18%
  Measured dosing concentrations: 22.13 ± 0.61 µM
[1]; [9]
  Concentration after incubation (tinc): 6.27 ± 0.69 µM
  Loss of Compound A during the NSB assay: 3%
  Measured dosing concentrations ([…] C0): 9.65 ± 1.52 µM
[1]; [10]
  Concentration after incubation (tinc): 55.92 ± 2.44 µM
  Loss of Compound A during the NSB assay: −2%
  Measured dosing concentrations ([…] C0): 82.20 ± 3.76 µM

## COCCOC1(c2ccc(Cl)cc2)c2ccccc2C2=NCCN21 (stereo not drawn) [Compound I-4]
[2]
  Papp: 1.55 nm/s

## Clc1ccc(C2(OCC3OCCO3)c3ccccc3C3=NCCN32)cc1 (stereo not drawn) [Compound I-19]
[2]
  Papp: 1.06 nm/s
[1]; [3]
  Non-specific binding (NSB): did not show any loss due to plastic binding
[1]; [4]
  Non-specific binding (NSB): more than 20%
[1]; [11]
  Concentration after incubation: 5.98 ± 0.13 µM
  Loss of Compound I-19 during the NSB assay: 34%
  Measured dosing concentrations: 8.99 ± 0.60 µM
[1]; [12]
  Concentration after incubation: 59.43 ± 5.59 µM
  Loss of Compound I-19 during the NSB assay: 23%
  Measured dosing concentrations: 76.99 ± 6.62 µM
[1]; [13]
  Concentration after incubation: 0.35 ± 0.03 µM
  Loss of Compound I-19 during the NSB assay: 39%
  Measured dosing concentrations: 0.57 ± 0.14 µM
[1]; [14]
  Concentration after incubation: 0.83 ± 0.07 µM
  Loss of Compound I-19 during the NSB assay: 30%
  Measured dosing concentrations: 1.18 ± 0.09 µM
[1]; [15]
  Concentration after incubation: 2.49 ± 0.18 µM
  Loss of Compound I-19 during the NSB assay: 49%
  Measured dosing concentrations: 4.84 ± 0.73 µM
[1]; [16]
  Concentration after incubation: 6.86 ± 0.20 µM
  Loss of Compound I-19 during the NSB assay: 29%
  Measured dosing concentrations: 9.59 ± 1.50 µM
[1]; [17]
  Concentration after incubation: 17.44 ± 3.56 µM
  Loss of Compound I-19 during the NSB assay: 27%
  Measured dosing concentrations: 23.77 ± 2.59 µM
[1]; [18]
  Concentration after incubation: 34.49 ± 3.00 µM
  Loss of Compound I-19 during the NSB assay: 12%
  Measured dosing concentrations: 38.99 ± 3.97 µM
[1]; [19]
  Concentration after incubation: 5.54 ± 0.13 µM
  Loss of Compound I-19 during the NSB assay: 36%
  Measured dosing concentrations: 8.68 ± 0.34 µM
[1]; [20]
  Concentration after incubation: 20.35 ± 1.94 µM
  Loss of Compound I-19 during the NSB assay: 33%
  Measured dosing concentrations: 30.52 ± 1.33 µM
[1]; [21]
  Concentration after incubation: 0.27 ± 0.02 µM
  Loss of Compound I-19 during the NSB assay: 39%
  Measured dosing concentrations: 0.44 ± 0.10 µM
[1]; [22]
  Concentration after incubation: 0.73 ± 0.04 µM
  Loss of Compound I-19 during the NSB assay: 34%
  Measured dosing concentrations: 1.10 ± 0.10 µM
[1]; [23]
  Concentration after incubation: 1.68 ± 0.26 µM
  Loss of Compound I-19 during the NSB assay: 36%
  Measured dosing concentrations: 2.63 ± 1.34 µM
[1]; [24]
  Concentration after incubation: 4.05 ± 0.49 µM
  Loss of Compound I-19 during the NSB assay: 45%
  Measured dosing concentrations: 7.32 ± 3.86 µM
[1]; [25]
  Concentration after incubation: 12.58 ± 1.30 µM
  Loss of Compound I-19 during the NSB assay: 39%
  Measured dosing concentrations: 20.72 ± 2.88 µM
[1]; [26]
  Concentration after incubation: 34.06 ± 2.30 µM
  Loss of Compound I-19 during the NSB assay: 25%
  Measured dosing concentrations: 45.32 ± 9.94 µM
[1]; [27]
  Concentration after incubation (tinc): 12.92 ± 0.21 µM
  Loss of Compound I-19 during the NSB assay: −4%
  Measured dosing concentrations ([…] C0): 18.55 ± 0.06 µM
[1]; [28]
  Concentration after incubation (tinc): 122.52 ± 9.60 µM
  Loss of Compound I-19 during the NSB assay: −13%
  Measured dosing concentrations ([…] C0): 162.83 ± 11.51 µM
[1]; [29]
  Concentration after incubation (tinc): 13.10 ± 1.26 µM
  Loss of Compound I-19 during the NSB assay: −11%
  Measured dosing concentrations ([…] C0): 17.68 ± 0.42 µM
[1]; [30]
  Concentration after incubation (tinc): 124.55 ± 5.96 µM
  Loss of Compound I-19 during the NSB assay: −12%
  Measured dosing concentrations ([…] C0): 167.14 ± 11.84 µM
[1]; pH 7.4
  Concentration after incubation: 0.15 ± 0.01 µM
  Loss of Compound I-19 during the NSB assay: 33%
  Measured dosing concentrations: 0.23 ± 0.02 µM
[1]; pH 8
  Concentration after incubation: 0.10 ± 0.01 µM
  Loss of Compound I-19 during the NSB assay: 41%
  Measured dosing concentrations: 0.17 ± 0.02 µM
